Test results reported in PubChem BioAssay AID2060610 (Molecular Pharmacology Branch, DTP, NCI, 2025).
Several values for one entry are separate records, joined by “and”; a condition that tells them apart may be missing. Equal entries are not always repeated.

Tested on: 616215-338-R-J1-PDC complex spheroids, viability % test/control
Assay: Anticancer human tumor 616215-338-R-J1-PDC patient-derived colon adenocarcinoma cell line growth inhibition [CLK]
Details: for viability, T/C: stronger effect = lower value; active means viability on the fitted dose curve at most 10% of control; inactive means the rest
Procedure, shortened: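 Multi-cell-type spheroids combined patient-derived tumor cells with HUVEC endothelial cells and human mesenchymal stem cells. Paired agents were dosed in half-log steps down from about clinical Cmax, or from 10 microM where Cmax was unknown.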

[1] = curve of first compound, second compound 0.0316 µM
[2] = curve of first compound, second compound 0.1 µM
[3] = curve of first compound, second compound 0.316 µM
[4] = curve of first compound, second compound 1 µM
[5] = curve of first compound, second compound 3.16 µM
[6] = curve of first compound, second compound 10 µM
[7] = second compound 0.0316 µM, first compound 0.0316 µM
[8] = second compound 0.0316 µM, first compound 0.1 µM
[9] = second compound 0.0316 µM, first compound 0.316 µM
[10] = second compound 0.0316 µM, first compound 1 µM
[11] = second compound 0.0316 µM, first compound 3.16 µM
[12] = second compound 0.0316 µM, first compound 10 µM
[13] = second compound 0.1 µM, first compound 0.0316 µM
[14] = second compound 0.1 µM, first compound 0.1 µM
[15] = second compound 0.1 µM, first compound 0.316 µM
[16] = second compound 0.1 µM, first compound 1 µM
[17] = second compound 0.1 µM, first compound 3.16 µM
[18] = second compound 0.1 µM, first compound 10 µM
[19] = second compound 0.316 µM, first compound 0.0316 µM
[20] = second compound 0.316 µM, first compound 0.1 µM
[21] = second compound 0.316 µM, first compound 0.316 µM
[22] = second compound 0.316 µM, first compound 1 µM
[23] = second compound 0.316 µM, first compound 3.16 µM
[24] = second compound 0.316 µM, first compound 10 µM
[25] = second compound 1 µM, first compound 0.0316 µM
[26] = second compound 1 µM, first compound 0.1 µM
[27] = second compound 1 µM, first compound 0.316 µM
[28] = second compound 1 µM, first compound 1 µM
[29] = second compound 1 µM, first compound 3.16 µM
[30] = second compound 1 µM, first compound 10 µM
[31] = second compound 3.16 µM, first compound 0.0316 µM
[32] = second compound 3.16 µM, first compound 0.1 µM
[33] = second compound 3.16 µM, first compound 0.316 µM
[34] = second compound 3.16 µM, first compound 1 µM
[35] = second compound 3.16 µM, first compound 3.16 µM
[36] = second compound 3.16 µM, first compound 10 µM
[37] = second compound 10 µM, first compound 0.0316 µM
[38] = second compound 10 µM, first compound 0.1 µM
[39] = second compound 10 µM, first compound 0.316 µM
[40] = second compound 10 µM, first compound 1 µM
[41] = second compound 10 µM, first compound 3.16 µM
[42] = second compound 10 µM, first compound 10 µM
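Further: spheroids exposed to agents for 7 days.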
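Wherever viability, T/C is given: 100% = DMSO vehicle wells.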

C=C(F)C(=O)N1CCN(c2nc(OCC3CCCN3C)nc3c2CCN(c2cccc4cccc(Cl)c24)C3)CC1CC#N (centres undefined) + CN1CCN(c2cc(C(=O)Nc3cc4cc(-c5cnn(C)c5)ccc4cn3)ccn2)CC1
active: viability, T/C [12] 0.26% | viability, T/C [18] 0.19% | viability, T/C [24] 0.12% | viability, T/C [25] 0.28% | viability, T/C [26] 0.24% | viability, T/C [27] 0.31% | viability, T/C [28] 0.16% | viability, T/C [29] 0.14% | viability, T/C [30] 0.11% | viability, T/C [31] 0.16% | viability, T/C [32] 0.16% | viability, T/C [33] 0.16% | viability, T/C [34] 0.18% | viability, T/C [35] 2.55% | viability, T/C [36] 3.36% | viability, T/C [37] 0.24% | viability, T/C [38] 0.21% | viability, T/C [39] 0.22% | viability, T/C [40] 0.25% | viability, T/C [41] 1.31% | viability, T/C [42] 0.21%
inactive: viability, T/C [7] 102% | viability, T/C [8] 109% | viability, T/C [9] 105% | viability, T/C [10] 106% | viability, T/C [11] 116% | viability, T/C [13] 114% | viability, T/C [14] 120% | viability, T/C [15] 107% | viability, T/C [16] 116% | viability, T/C [17] 119% | viability, T/C [19] 35.1% | viability, T/C [20] 45.4% | viability, T/C [21] 40.2% | viability, T/C [22] 38.8% | viability, T/C [23] 11.3%
5.87 µM: IC50 [1]
6.07 µM: IC50 [2]
< 0.0316 µM: IC50 [3] | IC50 [4] | IC50 [5] | IC50 [6]

O=C(c1cc(Cc2n[nH]c(=O)c3ccccc23)ccc1F)N1CCN(C(=O)C2CC2)CC1
inactive: viability, T/C (compound 0.0316 µM) 96.4% and 102% | viability, T/C (compound 0.1 µM) 96.1% and 94.5% | viability, T/C (compound 0.316 µM) 87.9% and 96.6% | viability, T/C (compound 1 µM) 88.2% and 93.6% | viability, T/C (compound 3.16 µM) 106% and 99.5% | viability, T/C (compound 10 µM) 97.4% and 99.5%
> 10 µM: IC50 (curve of compound)

CC1(C)CCC(CN2CCN(c3ccc(C(=O)NS(=O)(=O)c4ccc(NCC5CCOCC5)c([N+](=O)[O-])c4)c(Oc4cnc5[nH]ccc5c4)c3)CC2)=C(c2ccc(Cl)cc2)C1 + CN1CCN(c2cc(C(=O)Nc3cc4cc(-c5cnn(C)c5)ccc4cn3)ccn2)CC1
5.82 µM: IC50 [1]
< 0.0316 µM: IC50 [3] | IC50 [4] | IC50 [5] | IC50 [6]
active: viability, T/C [12] 1.63% | viability, T/C [18] 1.54% | viability, T/C [24] 1.79% | viability, T/C [25] 0.16% | viability, T/C [26] 0.22% | viability, T/C [27] 0.2% | viability, T/C [28] 0.16% | viability, T/C [29] 2.45% | viability, T/C [30] 0.3% | viability, T/C [31] 0.12% | viability, T/C [32] 0.14% | viability, T/C [33] 0.15% | viability, T/C [34] 0.12% | viability, T/C [35] 0.11% | viability, T/C [36] 0.62% | viability, T/C [37] 0.13% | viability, T/C [38] 0.14% | viability, T/C [39] 0.16% | viability, T/C [40] 0.15% | viability, T/C [41] 3.51% | viability, T/C [42] 0.2%
inactive: viability, T/C [7] 105% | viability, T/C [8] 106% | viability, T/C [9] 102% | viability, T/C [10] 103% | viability, T/C [11] 106% | viability, T/C [13] 109% | viability, T/C [14] 118% | viability, T/C [15] 110% | viability, T/C [16] 129% | viability, T/C [17] 67.9% | viability, T/C [19] 35.4% | viability, T/C [20] 31.4% | viability, T/C [21] 32% | viability, T/C [22] 26.9% | viability, T/C [23] 12.7%
4.31 µM: IC50 [2]

CN1CCN(c2cc(C(=O)Nc3cc4cc(-c5cnn(C)c5)ccc4cn3)ccn2)CC1
active: viability, T/C (compound 1 µM) 1.63% [middle of 11 runs] | viability, T/C (compound 3.16 µM) 1% [middle of 11 runs] | viability, T/C (compound 10 µM) 0.25% [middle of 10 runs]
inactive: viability, T/C (compound 0.0316 µM) 99.7% [middle of 12 runs] | viability, T/C (compound 0.1 µM) 107% [middle of 12 runs] | viability, T/C (compound 0.316 µM) 34.7% [middle of 12 runs]
238 nM [middle of 11 runs]: IC50 (compound alone, run of 07/31/2023)

O=c1[nH]cc(F)c(=O)[nH]1
0.672 µM and 0.654 µM: IC50 (curve of compound)
inactive: viability, T/C (compound 0.0316 µM) 94% and 97.5% | viability, T/C (compound 0.1 µM) 95.6% and 111% | viability, T/C (compound 0.316 µM) 65.3% and 61.7% | viability, T/C (compound 1 µM) 44.4% and 46.8% | viability, T/C (compound 3.16 µM) 35.2% and 39.2% | viability, T/C (compound 10 µM) 39.2% and 43.4%

NC(=O)C(=Cn1cnc(-c2cc(C(F)(F)F)cc(C(F)(F)F)c2)n1)c1cncnc1 + CNC(=O)c1ccc(Nc2nc(OC3CCCC3)c3c(-c4ccc5nc(C)oc5c4)c[nH]c3n2)c(OC)c1
0.651 µM: IC50 [1]
active: viability, T/C (second compound 1 µM, first compound 3 µM) 7.01% | viability, T/C (second compound 3.16 µM, first compound 3 µM) 4.39% | viability, T/C (second compound 10 µM, first compound 3 µM) 2.88%
< 0.00949 µM: IC50 [2] | IC50 [3] | IC50 [4] | IC50 [5] | IC50 [6]
inactive: viability, T/C (second compound 0.0316 µM, first compound 0.00949 µM) 84.9% | viability, T/C (second compound 0.0316 µM, first compound 0.03 µM) 95.5% | viability, T/C (second compound 0.0316 µM, first compound 0.0949 µM) 96% | viability, T/C (second compound 0.0316 µM, first compound 0.3 µM) 77.6% | viability, T/C (second compound 0.0316 µM, first compound 0.949 µM) 36.6% | viability, T/C (second compound 0.0316 µM, first compound 3 µM) 18.4% | viability, T/C (second compound 0.1 µM, first compound 0.00949 µM) 45.4% | viability, T/C (second compound 0.1 µM, first compound 0.03 µM) 48.2% | viability, T/C (second compound 0.1 µM, first compound 0.0949 µM) 34.1% | viability, T/C (second compound 0.1 µM, first compound 0.3 µM) 33.1% | viability, T/C (second compound 0.1 µM, first compound 0.949 µM) 32.5% | viability, T/C (second compound 0.1 µM, first compound 3 µM) 15.8% | viability, T/C (second compound 0.316 µM, first compound 0.00949 µM) 34% | viability, T/C (second compound 0.316 µM, first compound 0.03 µM) 30.4% | viability, T/C (second compound 0.316 µM, first compound 0.0949 µM) 29.7% | viability, T/C (second compound 0.316 µM, first compound 0.3 µM) 25.4% | viability, T/C (second compound 0.316 µM, first compound 0.949 µM) 29.3% | viability, T/C (second compound 0.316 µM, first compound 3 µM) 12.8% | viability, T/C (second compound 1 µM, first compound 0.00949 µM) 34.5% | viability, T/C (second compound 1 µM, first compound 0.03 µM) 33.4% | viability, T/C (second compound 1 µM, first compound 0.0949 µM) 30.5% | viability, T/C (second compound 1 µM, first compound 0.3 µM) 26.9% | viability, T/C (second compound 1 µM, first compound 0.949 µM) 18.3% | viability, T/C (second compound 3.16 µM, first compound 0.00949 µM) 33.5% | viability, T/C (second compound 3.16 µM, first compound 0.03 µM) 35% | viability, T/C (second compound 3.16 µM, first compound 0.0949 µM) 27.7% | viability, T/C (second compound 3.16 µM, first compound 0.3 µM) 23.3% | viability, T/C (second compound 3.16 µM, first compound 0.949 µM) 13.1% | viability, T/C (second compound 10 µM, first compound 0.00949 µM) 31.3% | viability, T/C (second compound 10 µM, first compound 0.03 µM) 28.5% | viability, T/C (second compound 10 µM, first compound 0.0949 µM) 28.9% | viability, T/C (second compound 10 µM, first compound 0.3 µM) 19.7% | viability, T/C (second compound 10 µM, first compound 0.949 µM) 10.8%

COc1c(OCCCN2CCOCC2)ccc2c3n(c(=NC(=O)c4cnc(N)nc4)nc12)CCN3
0.143 µM and 0.245 µM: IC50 (curve of compound)
inactive: viability, T/C (compound 0.00316 µM) 101% and 89.7% | viability, T/C (compound 0.01 µM) 111% and 96.4% | viability, T/C (compound 0.0316 µM) 106% and 114% | viability, T/C (compound 0.1 µM) 57.7% and 74.8% | viability, T/C (compound 0.316 µM) 36.1% and 46% | viability, T/C (compound 1 µM) 29% and 39.8%
